Laboratory results published in ChEMBL document CHEMBL1201862, “PubChem BioAssay data set” (2004).
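These data come from cells grown in 96-well plates and exposed to compound for 48 hours at five concentrations. The concentration for 50% growth inhibition is given as GI50.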 The source made the active and inactive calls. Cut-off read from the data, not from the text of the source: active = GI50 up to about 1.1 µM and inactive = higher.

Tests used:
Assay in all cases: DTP human tumour cell line panel, 48 h
U-251 = system: U-251
OVCAR-8 = system: OVCAR-8
NCI-H23 = system: NCI-H23
HOP-92 = system: HOP-92
NCI-H460 = system: NCI-H460
SF-539 = system: SF-539
A498 = system: A498
TK-10 = system: TK-10
ACHN = system: ACHN
NCI-H226 = system: NCI-H226
HCT-116 = system: HCT-116
IGROV-1 = system: IGROV-1
UACC-257 = system: UACC-257
RPMI-8226 = system: RPMI-8226
OVCAR-5 = system: OVCAR-5
SF-268 = system: SF-268
SK-MEL-2 = system: SK-MEL-2
SK-OV-3 = system: SK-OV-3
SK-MEL-5 = system: SK-MEL-5
SR = system: SR

Measured: GI50

Nc1nnc(CCC(=O)Nc2cc(Cl)ccc2Cl)n1N
inactive: U-251 > 100 µM | OVCAR-8 > 100 µM | NCI-H23 > 100 µM | HOP-92 > 100 µM | NCI-H460 > 100 µM | SF-539 > 100 µM | A498 > 100 µM | TK-10 > 100 µM | ACHN > 100 µM | NCI-H226 > 100 µM | HCT-116 > 100 µM | IGROV-1 > 100 µM | UACC-257 > 100 µM | RPMI-8226 > 100 µM | OVCAR-5 > 100 µM | SF-268 > 100 µM | SK-MEL-2 > 100 µM | SK-OV-3 > 100 µM | SK-MEL-5 > 100 µM | SR > 100 µM
